Laboratory results taken from patent US10123993B2, “Cyclic ureas as inhibitors of rock” (BRISTOL-MYERS SQUIBB COMPANY, priority 2015, dated 2018).

Target: ROCK2 (Homo sapiens, UniProt O75116)
Test: ROCK2 kinase inhibition assay (Caliper LABCHIP, FITC peptide substrate)
Assay type: biochemical
Conditions: 5 μM ATP, 1.5 μM peptide substrate; value ranges
Description: The effectiveness of compounds of the present invention as ROCK inhibitors can be determined in a 30 μL assay containing 20 mM HEPES, pH 7.5, 20 mM MgCl2, 0.015% Brij-35, 4 mM DTT, 5 μM ATP and 1.5 μM peptide substrate (FITC-AHA-AKRRRLSSLRA-OH). Compounds were dissolved in DMSO so that the final concentration of DMSO was <2%, and the reaction was initiated with Rho kinase variants. After incubation, the reaction was terminated by the addition of EDTA and the phosphorylated and non-phosphorylated peptides separated using a LABCHIP® 3000 Reader (Caliper Life Sciences). […] Compounds were tested in dose-response format, and the inhibition of kinase activity was calculated at each concentration of compound. The inhibition data were fit using a curve-fitting program to determine the IC50; i.e., the concentration of compound required to inhibit 50% of kinase activity.
Representative Examples were tested in the ROCK2 assay described above and found having ROCK inhibitory activity.

Sequence of ROCK2 (O75116 whole entry, species assumed): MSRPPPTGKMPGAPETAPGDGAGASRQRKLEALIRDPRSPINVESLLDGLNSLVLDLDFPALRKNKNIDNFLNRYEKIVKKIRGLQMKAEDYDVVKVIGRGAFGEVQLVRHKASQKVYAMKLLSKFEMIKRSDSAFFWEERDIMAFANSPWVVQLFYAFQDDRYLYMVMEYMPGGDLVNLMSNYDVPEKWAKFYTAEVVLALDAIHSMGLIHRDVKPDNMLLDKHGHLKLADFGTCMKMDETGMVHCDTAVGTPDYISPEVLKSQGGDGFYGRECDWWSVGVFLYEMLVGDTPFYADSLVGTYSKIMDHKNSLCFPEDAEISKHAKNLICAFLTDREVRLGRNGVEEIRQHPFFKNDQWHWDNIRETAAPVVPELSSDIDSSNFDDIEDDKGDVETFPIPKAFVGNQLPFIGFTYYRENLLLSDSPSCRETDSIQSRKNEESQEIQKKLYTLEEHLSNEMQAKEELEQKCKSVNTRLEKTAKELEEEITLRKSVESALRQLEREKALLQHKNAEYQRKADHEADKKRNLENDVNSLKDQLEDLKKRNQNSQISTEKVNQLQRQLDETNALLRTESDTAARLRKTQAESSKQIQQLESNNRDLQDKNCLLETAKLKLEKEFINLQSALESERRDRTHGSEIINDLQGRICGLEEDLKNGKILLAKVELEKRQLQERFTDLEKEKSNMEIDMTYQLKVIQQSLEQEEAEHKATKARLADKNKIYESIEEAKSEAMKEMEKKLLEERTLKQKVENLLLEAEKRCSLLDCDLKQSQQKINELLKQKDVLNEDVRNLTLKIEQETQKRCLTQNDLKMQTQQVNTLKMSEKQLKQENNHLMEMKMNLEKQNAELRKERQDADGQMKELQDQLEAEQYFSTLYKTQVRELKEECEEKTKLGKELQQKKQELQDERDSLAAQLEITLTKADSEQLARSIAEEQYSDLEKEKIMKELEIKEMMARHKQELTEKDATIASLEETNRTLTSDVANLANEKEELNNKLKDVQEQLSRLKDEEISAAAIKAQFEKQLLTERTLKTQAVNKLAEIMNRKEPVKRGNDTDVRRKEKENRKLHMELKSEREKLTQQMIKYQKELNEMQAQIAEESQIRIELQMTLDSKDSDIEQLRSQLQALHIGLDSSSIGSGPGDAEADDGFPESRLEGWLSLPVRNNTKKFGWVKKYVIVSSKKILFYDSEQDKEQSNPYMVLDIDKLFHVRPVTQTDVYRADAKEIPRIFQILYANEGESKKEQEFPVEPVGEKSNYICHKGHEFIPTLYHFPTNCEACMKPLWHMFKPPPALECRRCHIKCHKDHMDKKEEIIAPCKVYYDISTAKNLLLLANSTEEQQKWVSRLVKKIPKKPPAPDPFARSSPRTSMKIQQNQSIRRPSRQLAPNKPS

SMILES: O=C1N(Cc2cccc(OCC3CC3)c2)CCN1c1ccc(-c2cn[nH]c2)nc1 [Example 441, 1-(6-(1H-pyrazol-4-yl)pyridin-3-yl)-3-(3-(cyclopropylmethoxy)benzyl)imidazolidin-2-one]
- IC50: 200 to 2000 nM

SMILES: O=c1n(CCc2ccccc2)ccn1-c1ccc(-c2cn[nH]c2)cc1 [Example 335, 1-(4-(1H-pyrazol-4-yl)phenyl)-3-phenethyl-1H-imidazol-2(3H)-one]
- IC50: 20.1 to 200 nM

SMILES: COc1cc(N2CCN(Cc3cccc(F)c3)C2=O)ccc1-c1cn[nH]c1 [Example 6, 1-(3-Fluorobenzyl)-3-(3-methoxy-4-(1H-pyrazol-4-yl)phenyl)imidazolidin-2-one]
- IC50: 2.1 to 20 nM

SMILES: CCc1nc(N2CCN(C(CO)c3cccc(OC)c3)C2=O)ccc1-c1cn[nH]c1 (single isomer, unassigned) [Example 159, 1-(6-ethyl-5-(1H-pyrazol-4-yl)pyridin-2-yl)-3-(2-hydroxy-1-(3-methoxy-phenyl)ethyl) imidazolidin-2-one]
- IC50: < 2 nM

SMILES: COc1ccc(F)cc1CN1CCN(c2ccc(-c3cn[nH]c3)cc2)C1=O [Example 119, 1-(4-(1H-pyrazol-4-yl)phenyl)-3-(5-fluoro-2-methoxybenzyl)imidazolidin-2-one]
- IC50: 20.1 to 200 nM

SMILES: COc1cccc(C(CO)n2ccn(-c3ccc(-c4cn[nH]c4)c(OC)c3)c2=O)c1 (single isomer, unassigned) [Example 360, 1-(2-hydroxy-1-(3-methoxyphenyl)ethyl)-3-(3-methoxy-4-(1H-pyrazol-4-yl)phenyl)-1H-imidazol-2(3H)-one]
- IC50: 200 to 2000 nM

SMILES: CC(C)COc1cccc(CN2CCN(c3ccc(-c4cn[nH]c4)cn3)C2=O)c1 [Example 444, 1-(5-(1H-pyrazol-4-yl)pyridin-2-yl)-3-(3-isobutoxybenzyl)imidazolidin-2-one]
- IC50: 20.1 to 200 nM

SMILES: COc1cccc(Cn2ccn(-c3ccc(-c4cn[nH]c4)cc3)c2=O)c1F [Example 337, 1-(4-(1H-pyrazol-4-yl)phenyl)-3-(2-fluoro-3-methoxybenzyl)-1H-imidazol-2(3H)-one]
- IC50: 20.1 to 200 nM

SMILES: CCc1cc(N2CCN(Cc3ccccc3F)C2=O)ccc1-c1cn[nH]c1 [Example 25, 1-(3-Ethyl-4-(1H-pyrazol-4-yl)phenyl)-3-(2-fluorobenzyl)imidazolidin-2-one]
- IC50: 20.1 to 200 nM

SMILES: O=C1CN(c2ccc(-c3cn[nH]c3)cc2)C(=O)N1Cc1ccccc1Cl [Example 111, 1-(4-(1H-pyrazol-4-yl)phenyl)-3-(2-chlorobenzyl) imidazolidine-2,4-dione]
- IC50: 2.1 to 20 nM

SMILES: COc1cc(F)cc(CN2CCN(c3cc(OC)c(-c4cn[nH]c4)cn3)C2=O)c1 [Example 472, 1-(3-fluoro-5-methoxybenzyl)-3-(4-methoxy-5-(1H-pyrazol-4-yl)pyridin-2-yl)imidazolidin-2-one]
- IC50: 2.1 to 20 nM

SMILES: COc1cccc(C(C(=O)NC2CC2)N2CCN(c3ccc(-c4cn[nH]c4)cc3)C2=O)c1 (single isomer, unassigned) [Example 301, 2-(3-(4-(1H-pyrazol-4-yl)phenyl)-2-oxoimidazolidin-1-yl)-N-cyclopropyl-2-(3-methoxyphenyl)acetamide]
- IC50: 2.1 to 20 nM

SMILES: COc1cccc(CN2C(=O)N(c3ccc(-c4cn[nH]c4)cc3)C(=O)C2CO)c1 (centres unmarked) [Example 153, 3-(4-(1H-Pyrazol-4-yl)phenyl)-5-(hydroxymethyl)-1-(3-methoxybenzyl)imidazolidine-2,4-dione]
- IC50: 200 to 2000 nM

SMILES: COc1cc(F)ccc1Cn1ccn(-c2ccc(-c3cn[nH]c3)c(OC)n2)c1=O [Example 383, 1-(4-fluoro-2-methoxybenzyl)-3-(6-methoxy-5-(1H-pyrazol-4-yl)pyridin-2-yl)-1H-imidazol-2(3H)-one]
- IC50: 20.1 to 200 nM

SMILES: N#Cc1cccc(CN2CCN(c3ccc(-c4cn[nH]c4)cn3)C2=O)c1 [Example 235, 3-((3-(5-(1H-pyrazol-4-yl)pyridin-2-yl)-2-oxoimidazolidin-1-yl)methyl)benzonitrile]
- IC50: 200 to 2000 nM

SMILES: O=c1n(Cc2ccccc2F)ccn1-c1ccc(-c2cn[nH]c2)cc1 [Example 69, 1-(4-(1H-pyrazol-4-yl)phenyl)-3-(2-fluorobenzyl)-1H-imidazol-2(3H)-one]
- IC50: 20.1 to 200 nM

SMILES: COc1cccc(C(CO)N2CCN(c3ccc(-c4cn[nH]c4)cc3)C2=O)c1 (single isomer, unassigned) [Example 155, 1-(4-(1H-Pyrazol-4-yl)phenyl)-3-(2-hydroxy-1-(3-methoxyphenyl)ethyl)imidazolidin-2-one]
- IC50: < 2 nM

SMILES: COc1cccc(CN2CCN(c3cc(F)c(-c4cn[nH]c4)cc3F)C2=O)c1 [Example 447, 1-(2,5-difluoro-4-(1H-pyrazol-4-yl)phenyl)-3-(3-methoxybenzyl)imidazolidin-2-one]
- IC50: 20.1 to 200 nM

SMILES: O=C1N(c2ccc(-c3cn[nH]c3)cc2)CCN1C(CO)c1ccccc1 (single isomer, unassigned) [Example 162, 1-(4-(1H-pyrazol-4-yl)phenyl)-3-(2-hydroxy-1-phenylethyl) imidazolidin-2-one]
- IC50: 200 to 2000 nM

SMILES: CC(c1ccccc1)N1C(=O)CN(c2ccc(-c3cn[nH]c3)cc2)C1=O (centres unmarked) [Example 109, 1-(4-(1H-pyrazol-4-yl)phenyl)-3-(1-phenylethyl) imidazolidine-2,4-dione]
- IC50: 200 to 2000 nM

SMILES: COc1cc(F)cc(Cn2ccn(-c3ccc(-c4cn[nH]c4)c(OC)n3)c2=O)c1 [Example 478, 1-(3-fluoro-5-methoxybenzyl)-3-(6-methoxy-5-(1H-pyrazol-4-yl)pyridin-2-yl)-1H-imidazol-2(3H)-one]
- IC50: < 2 nM

SMILES: COc1cccc(CN2C(=O)N(c3ccc(-c4cn[nH]c4)cc3)CC2C(C)(C)O)c1 (single isomer, unassigned) [Example 124, 1-(4-(1H-Pyrazol-4-yl)phenyl)-4-(2-hydroxypropan-2-yl)-3-(3-methoxybenzyl)imidazolidin-2-one]
- IC50: < 2 nM

SMILES: COc1cc(F)cc(Cn2ccn(-c3ccc(-c4cn[nH]c4)cc3)c2=O)c1 [Example 336, 1-(4-(1H-pyrazol-4-yl)phenyl)-3-(3-fluoro-5-methoxybenzyl)-1H-imidazol-2(3H)-one]
- IC50: 2.1 to 20 nM

SMILES: COc1cccc([C@@H](C)N2CCN(c3ccc(-c4cn[nH]c4)cc3OC)C2=O)c1 [Example 14, (R)-1-(2-Methoxy-4-(1H-pyrazol-4-yl)phenyl)-3-(1-(3-methoxyphenyl)ethyl)imidazolidin-2-one]
- IC50: 20.1 to 200 nM

SMILES: COc1cccc(C(C)n2ccn(-c3ccc(-c4cn[nH]c4)c(OC)n3)c2=O)c1 (single isomer, unassigned) [Example 401, 1-(6-methoxy-5-(1H-pyrazol-4-yl)pyridin-2-yl)-3-(1-(3-methoxyphenyl)ethyl)-1H-imidazol-2(3H)-one]
- IC50: 2.1 to 20 nM

SMILES: COc1cc(CN2C(=O)N(c3ccc(-c4cn[nH]c4)c(C)n3)CC2(C)C)ccc1F [Example 152, 3-(4-fluoro-3-methoxy-benzyl)-4,4-dimethyl-1-(6-methyl-5-(1H-pyrazol-4-yl)pyridin-2-yl)-imidazolidin-2-one]
- IC50: 2.1 to 20 nM

SMILES: CNCC(c1cccc(OC)c1)N1CCN(c2ccc(-c3cn[nH]c3)cc2)C1=O (single isomer, unassigned) [Example 309, 1-(4-(1H-Pyrazol-4-yl)phenyl)-3-(1-(3-methoxyphenyl)-2-(methylamino)ethyl)imidazolidin-2-one]
- IC50: 20.1 to 200 nM

SMILES: COc1cccc(CN2C(=O)N(c3ccc(-c4cn[nH]c4)cc3)CC2C(C)(C)O)c1 (single isomer, unassigned) [Example 123, 1-(4-(1H-Pyrazol-4-yl)phenyl)-4-(2-hydroxypropan-2-yl)-3-(3-methoxybenzyl)imidazolidin-2-one]
- IC50: < 2 nM

SMILES: COc1cccc(C(C)n2ccn(-c3ccc(-c4cn[nH]c4)c(C)n3)c2=O)c1 (single isomer, unassigned) [Example 188, 1-(1-(3-methoxy-phenyl)ethyl)-3-(6-methyl-5-(1H-pyrazol-4-yl)pyridin-2-yl)-1H-imidazol-2(3H)-one]
- IC50: < 2 nM

SMILES: COc1cc(F)cc(CN2CCN(c3ccc(-c4cn[nH]c4)cc3)C2=O)c1 [Example 118, 1-(4-(1H-pyrazol-4-yl)phenyl)-3-(3-fluoro-5-methoxybenzyl)imidazolidin-2-one]
- IC50: < 2 nM

SMILES: COc1cccc(C(C(=O)NCC(C)C)N2CCN(c3ccc(-c4cn[nH]c4)cc3)C2=O)c1 (single isomer, unassigned) [Example 293, 2-(3-(4-(1H-pyrazol-4-yl)phenyl)-2-oxoimidazolidin-1-yl)-N-isobutyl-2-(3-methoxyphenyl)acetamide]
- IC50: 200 to 2000 nM

SMILES: O=C1N(Cc2cccc(F)c2)CC(CO)N1c1ccc(-c2cn[nH]c2)cc1 (centres unmarked) [Example 39, 3-(4-(1H-Pyrazol-4-yl)phenyl)-1-(3-fluorobenzyl)-4-(hydroxymethyl)imidazolidin-2-one]
- IC50: 2.1 to 20 nM

SMILES: COc1cccc([C@@H](C)N2CCN(c3ccc(-c4cn[nH]c4)cc3)C2=O)c1 [Example 122, (R)-1-(4-(1H-Pyrazol-4-yl)phenyl)-3-(1-(3-methoxyphenyl)ethyl)imidazolidin-2-one]
- IC50: < 2 nM

SMILES: COc1cccc(C(C)N2CCN(c3ccc(-c4cn[nH]c4)c(C)n3)C2=O)c1 (single isomer, unassigned) [Example 182, 1-(1-(3-methoxy-phenyl)-ethyl)-3-(6-methyl-5-(1H-pyrazol-4-yl)pyridin-2-yl)-imidazolidin-2-one]
- IC50: 200 to 2000 nM

SMILES: COc1cccc(C(C)N2CCN(c3ccc(-c4cn[nH]c4)c(C)c3)C2=O)c1 (single isomer, unassigned) [Example 192, 1-(1-(3-methoxy-phenyl)-ethyl)-3-(3-methyl-4-(1H-pyrazol-4-yl)phenyl) imidazolidin-2-one]
- IC50: 200 to 2000 nM
